Broadly, the IC50 is the midpoint of a concentration-inhibition curve.

In the assay the target is T1, glucocorticoid receptor (GR) (Homo sapiens, UniProt P04150).
T1 construct: gene NR3C1
T1 sequence (P04150 1-777): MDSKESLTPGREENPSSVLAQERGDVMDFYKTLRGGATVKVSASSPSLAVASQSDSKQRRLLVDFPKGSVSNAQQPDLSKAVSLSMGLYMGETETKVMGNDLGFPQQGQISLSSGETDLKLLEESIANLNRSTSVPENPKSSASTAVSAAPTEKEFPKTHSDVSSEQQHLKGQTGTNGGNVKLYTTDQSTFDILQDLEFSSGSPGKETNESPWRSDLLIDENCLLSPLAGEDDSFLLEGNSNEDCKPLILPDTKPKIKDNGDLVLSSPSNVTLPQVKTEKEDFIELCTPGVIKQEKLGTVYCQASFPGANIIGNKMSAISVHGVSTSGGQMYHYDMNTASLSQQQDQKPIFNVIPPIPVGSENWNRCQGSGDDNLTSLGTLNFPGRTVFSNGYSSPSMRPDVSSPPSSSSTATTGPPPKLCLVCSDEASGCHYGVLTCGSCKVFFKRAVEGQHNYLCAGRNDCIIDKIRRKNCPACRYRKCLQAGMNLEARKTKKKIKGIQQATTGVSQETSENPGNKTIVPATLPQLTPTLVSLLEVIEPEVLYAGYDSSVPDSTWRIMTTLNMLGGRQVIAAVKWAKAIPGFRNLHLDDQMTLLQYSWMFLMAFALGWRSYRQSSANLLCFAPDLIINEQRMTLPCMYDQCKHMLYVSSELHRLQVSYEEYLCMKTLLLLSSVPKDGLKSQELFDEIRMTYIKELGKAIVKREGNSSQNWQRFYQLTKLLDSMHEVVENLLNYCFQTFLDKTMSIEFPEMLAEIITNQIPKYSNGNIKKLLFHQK
Nature of the assay: [3H]Dex competition radioligand binding in whole K562 cells (endogenous GR). The format is cell-based.

Read-outs that look alike come from different tables or passages of the source.

As for `CNCC(Cl)c1ccc(OC(C)=O)cc1` (centres unmarked) [CpdA, 2-(4-acetoxyphenyl)-2-chloro-N-methylethylammonium-chloride], the IC50 is 2500 nM.
Take `Oc1ccc(C(O)CN2CCCCC2)cc1` (centres unmarked) [CpdA-03, 4-(1-hydroxy-2-(piperidin-1-yl)ethyl)phenol]: for the setting “read-out: IC50”, the IC50 came to 150 nM.

(Values after paper PMC11354514, “Synthesis and Anti-Cancer Activity of the Novel Selective Glucocorticoid Receptor Agonists of the Phenylethanolamine Series” (International Journal of Molecular Sciences, 2024).)
